# Results as given in patent US6565830B1, “DTPA monoamides, pharmaceutical agents containing these compounds, their use and process for their production” (Schering Aktiengesellschaft, priority 1990, dated 2003).
# Tests used:
# [1] = tested on: Brown-Pearce tumor; test: In vivo NMR diagnosis (MRI) after intravenous administration, rat with Brown-Pearce tumor in the liver; settings: i.v. 0.1 mmol of Gd/kg
# Method: A cell suspension of the Brown-Pearce tumor was injected in the liver in a test animal (rat, strain lew/mol, female, 155 g) two weeks before the test. In the method used, about 2 weeks were required until the tumor had reached the size of 0.5-1 cm^3 desired for the test.
# For the test, the animal was anesthetized (Rompun+Ketavet) and then a catheter was placed in the caudal vein for the administration of the contrast medium.
# The imaging took place in an MRI experimental device of the General Electric company (field strength 2 teslas). The first image was made without contrast media with a T1-weighted spin echo sequence (TR=400 msec, TE=20 msec, layer thickness 3 mm).
# [2] = tested on: liver; test: In vivo NMR diagnosis (MRI) after oral administration, rat; settings: p.o. 0.5 mmol of Gd/kg
# Excerpt: This finding agrees very well with the pharmacokinetic data.
# [3] = molecular target: human serum albumin (Homo sapiens, UniProt P02768); test: Association with human serum albumin in aqueous solution; format: binding
# human serum albumin, sequence (P02768 25-609): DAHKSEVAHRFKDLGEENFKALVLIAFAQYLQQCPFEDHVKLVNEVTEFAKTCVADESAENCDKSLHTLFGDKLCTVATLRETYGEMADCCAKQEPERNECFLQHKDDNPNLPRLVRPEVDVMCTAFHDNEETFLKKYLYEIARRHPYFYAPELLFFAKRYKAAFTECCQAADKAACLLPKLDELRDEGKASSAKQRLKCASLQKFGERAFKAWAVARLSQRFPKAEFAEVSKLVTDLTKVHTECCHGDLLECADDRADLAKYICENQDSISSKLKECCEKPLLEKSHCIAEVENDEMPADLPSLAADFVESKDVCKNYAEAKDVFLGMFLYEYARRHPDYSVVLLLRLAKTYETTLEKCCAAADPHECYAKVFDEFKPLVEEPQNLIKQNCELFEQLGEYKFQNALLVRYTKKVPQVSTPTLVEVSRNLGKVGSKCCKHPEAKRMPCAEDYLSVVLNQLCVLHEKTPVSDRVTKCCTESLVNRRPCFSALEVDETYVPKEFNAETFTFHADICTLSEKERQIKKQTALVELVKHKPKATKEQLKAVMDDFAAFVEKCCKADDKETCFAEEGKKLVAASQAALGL
# [4] = cited from earlier work
structure (smiles),measurement,setting,value
"O=C(O)CCCCCCCCCCNC(=O)CN(CCN(CCN(CC(=O)O)CC(=O)O)CC(=O)O)CC(=O)O.[Gd] [Example 1b, Gadolinium complex of 3,6-bis(carboxymethyl)-9-(10-carboxydecylcarbamoylmethyl)-3,6,9-triazaundecanedioic acid]",secretion in the stomach,[1],secreted in the stomach
same,distribution of contrast medium between liver and tumor,[1]; 60 minutes,"concentrated in the liver to a great extent, but, not in the tumor"
same,enhancement of the stomach in MRI image,[1]; 60 minutes (image no. 2),very strong enhancement
same,appearance of liver tumor in MRI image,[1]; 60 minutes after administration,considerably darker in comparison with the surrounding liver tissue
same,signal intensity of liver parenchyma in MRI image,"[1]; 60 minutes after administration, T1-weighted spin echo, 2 teslas",very bright
same,resorption after oral administration,[2],resorbed in the small intestine after oral administration and is immediately taken up again for the most part by the liver
same,signal in the liver in MRI image,[2]; 45 minutes after administration (image 3),slight increase in the signal in the liver
same,enhancement in the liver in MRI image,[2]; 180 minutes after administration (image 4),marked enhancement
"CCCCCCC(CCCCCCCCCCC(=O)O)NC(=O)CN(CCN(CCN(CC(=O)O)CC(=O)O)CC(=O)O)CC(=O)O.[Gd] (centres unmarked) [Example 4b, Gadolinium complex of 3,6-bis(carboxymethyl)-9-(11-carboxy-1-n-hexyl-undecylcarbamoylmethyl)-3,6,9-triazaundecanedioic acid]",association with human serum albumin,[3],forms associates
"CNC[C@H](O)[C@@H](O)[C@H](O)[C@H](O)CO.CNC[C@H](O)[C@@H](O)[C@H](O)[C@H](O)CO.O=C([O-])CN(CCN(CC(=O)[O-])CC(=O)O)CCN(CC(=O)[O-])CC(=O)O.[Gd+3] [Magnevist, gadolinium(III) complex of diethylenetriaminepentaacetic acid]",distribution after intravenous injection,[4],spreads extracellularly
same,route of elimination after intravenous injection,[4],eliminated by glomerular secretion through the kidneys
